A short description of data set [1]: Optical absorbance of elution bath from coated 316L stainless steel sample in 0.9% saline. Format: physicochemical. The conditions noted are these: 1 cm2 316L stainless steel sample. From the text:
Table 3 depicts several experiments following the general procedures outlined in example 1, each with one time point and for a new bioactive material. M is the difference in absorbance between an elution bath from the sample containing the respective bioactive material and the absorbance from a sample with pure coating (i.e. control). In this instance, a 1 cm2 medical grade 316L stainless steel sample was coated using the above mentioned process.
M refers to the absorbance difference between coated with bioactive material and coated without bioactive material.

A short description of data set [2]: Drug elution from coated stents into physiologic saline solution (spectrophotometric assay). In kind it is physicochemical. Particulars: Bx Velocity (316L) and Smart (nitinol) stents with Ni-P coating, physiologic saline changed daily (FIGS. 6 and 7). The text has this:
Coated stents were formed using the same basic electroless deposition procedure in Example 1. However, in this example, instead of foil substrates, Johnson and Johnson Bx velocity stents (stainless steel) and Johnson and Johnson Smart stents (nitinol) were used as substrates. Bioactive composite structures in the form of layers were formed on the stents.
The amounts on the y-axis of the graphs represent the amount of bioactive material remaining on the stent after elution into a physiologic saline solution.
A similar anodization process as was used in the stent examples as was again applied to the foil substrates. After coating, the coated stent was placed in a physiologic saline solution and the solution changed daily. On the indicated days, the stent coatings were anodized. The amount of bioactive material released in each case was determined using a spectrophotometric assay.

Turning to heparin, the “ΔA (absorbance difference, coated with vs without bioactive material)” value is listed as 0 in data set [1] (Time = 0, immediately after deposition) and 2.4 (230 nm) in data set [1] (after seven days in 0.9% saline solution, characteristic absorbance wavelength in parentheses).
Regarding albumin, the “time over which appreciable amounts were released” value in data set [2] was 40 days.
The same measure, in the same setting: the result for `O=c1[nH]cc(F)c(=O)[nH]1` [Fluorouracil, 5-fluorouracil] reads 40 days.

The values above are taken from patent US20060121180A1, “Metallic structures incorporating bioactive materials and methods for creating the same” (Medlogics Device Corporation, priority 2001, published 2006).
